One series has as its target T1, recombinant Hsp90α (Homo sapiens, UniProt P07900).
T1 construct: purchased Assay Designs (Ann Arbor, MI, USA)
The experiment in a line: Surface plasmon resonance binding to immobilized Hsp90α. The settings on record: SPR, immobilized Hsp90α, 25°C, single-site bimolecular model, 0.025-1 µM; read-out: KD. The protocol:
SPR analyses were carried out according to our previously published procedures, [23]. Briefly, SPR analyses were performed using a Biacore 3000 optical biosensor equipped with research−grade CM5 sensor chips (GE Healthcare). Using this platform, two separate recombinant Hsp90α surfaces, a BSA surface and one unmodified reference surface were prepared for simultaneous analyses. Proteins (100 µg mL^−1 in 10 mM CH3COONa, pH 5.0) were immobilized on individual sensor chip surfaces at a flow rate of 5 µL min^−1 using standard amine−coupling protocols to obtain densities of 8–12 kRU. Polyphenols, as well as 17-AAG and hardwickiic acid (HA), were dissolved in 100% DMSO to obtain 4 mM solutions, and diluted 1∶200 (v/v) in PBS (10 mM NaH2PO4, 150 mM NaCl, pH 7.4) to a final DMSO concentration of 0.5%. […] Binding experiments were performed at 25°C, using a flow rate of 50 µL min^−1, with 60 s monitoring of association and 300 s monitoring of dissociation. Simple interactions were suitably fitted to a single−site bimolecular interaction model (A+B = AB), yielding a single K D. Sensorgram elaborations were performed using the BIAevaluation software provided by GE Healthcare.
Putative interactions of different plant-derived phenolic compounds with Hsp90α were evaluated by a SPR-based approach.
A general note: Surface plasmon resonance follows binding to a sensor surface in real time, without labels.

For another series, the system named is Jurkat cells. The experiment in a line: MTT cell viability, Jurkat. The class given is cell-based, human. To be noted: Homo sapiens, 24 h. How it is done: (§1) To ensure logarithmic growth, cells were subcultured every two days. As control cells, human peripheral blood mononuclear cells (PBMC) were isolated from buffy coats of healthy donors (kindly provided by the Blood Center of the Hospital of Battipaglia, Salerno, Italy) by using standard Ficoll−Hypaque gradients. […] Proliferation of PBMC was induced by phytohemagglutinin (PHA) (10 µg mL^−1). Tumor and PBMC cells were treated with different concentrations of geraniin or 17-AAG to evaluate their cytotoxic effects. Stock solutions of geraniin (50 mM in DMSO) and 17-AAG (10 mM in DMSO) were stored a −20°C in the dark and diluted just before addition to the sterile culture medium. In all the experiments, the final concentration of DMSO was 0.10% (v/v).
Jurkat (2×10^4/well) and HeLa (5000/well) cells were seeded in triplicate in 96 well−plates and incubated for 24 h in the absence or presence of different concentrations of geraniin (between 0,5 µM to 50 µM) or 17-AAG (between 0,5 nM to 10 µM).
The number of viable cells was determined by using a [3–4,5-dimethyldiazol-2-yl]-2,5-diphenyl tetrazolium bromide (MTT, Sigma-Aldrich) conversion assay, according to the method described by Mosmann. […] The absorbance was measured with a microplate reader (Titertek multiskan MCC7340, LabSystems, Vienna, VA, USA) equipped with a 620 nm filter. […]

Series [1] has as its system PBMC (human Peripheral Blood Mononuclear Cells). The experiment in a line: Cytotoxicity in PHA-stimulated proliferating PBMC. In kind it is cell-based. To be noted: 24 h, trypan blue, only at high doses. How it is done: as §1, with “Tumor and PBMC cells were treated with different concentrations of geraniin or 17-AAG to evaluate their cytotoxic effects.” left out
The number of viable cells was determined by using a [3–4,5-dimethyldiazol-2-yl]-2,5-diphenyl tetrazolium bromide (MTT, Sigma-Aldrich) conversion assay, according to the method described by Mosmann. Briefly, following the treatment, 25 µL of MTT (5 mg/mL in PBS) was added and the cells were incubated for additional 3 h at 37°C. Thereafter, cells were lysed and suspended with 100 µL of buffer containing 50% (v/v) N,N-dimethylformamide, 20% SDS (pH 4.5). The absorbance was measured with a microplate reader (Titertek multiskan MCC7340, LabSystems, Vienna, VA, USA) equipped with a 620 nm filter. Cell population growth inhibition was tested by cytometric counting (trypan blu exclusion).

For series [2], the system named is Hsp70, Hsp90 and Hsp90 client proteins in Jurkat cells. The experiment in a line: Western blot of Hsp70 and Hsp90 client proteins, Jurkat. The class given is cell-based, human. To be noted: 24 h. The protocol: Treated cells were harvested and disrupted by freeze−thawing in RIPA buffer (50 mM Hepes, 10 mM EDTA, 150 mM NaCl, 1% NP-40, 0.5% sodium deoxycholate, 0.1% SDS, pH 7.4), supplemented with protease inhibitors cocktail (Sigma-Aldrich). Cell debris was removed by centrifugation at 4°C and the supernatant protein concentration was determined, according to the Bio-Rad Protein assay (Biorad Laboratories, CA, USA). Total proteins (30 µg) were separated by SDS-PAGE under denatured reducing conditions. Separated proteins were then transferred to nitrocellulose membranes and blocked for 3 h with a solution containing 3% BSA in 50 mM Tris, 200 mM NaCl, 0.1% Tween 20, before incubation at 4°C overnight with the different primary antibodies (diluted 1∶1000) against specific proteins. After washing, the membranes were incubated with an appropriate peroxidase-conjugate secondary antibodies at room temperature (1 h). Immunoreactive protein bands were detected by enhanced chemiluminescence reagent (ECL, Rockford, USA), according to the manufacturer’s instructions. Quantitative densitometry analyses were performed using a Gel Doc 2000 system (Biorad Laboratories, CA, USA).
Figure 7 Effect of geraniin on Hsp90 client protein levels. Equal amounts (30 µg) of whole-cell lysates were separated on SDS-PAGE and client proteins were visualized by western blot analysis using specific antibodies. Actin was used as loading control. […] The blots shown are representative of three different experiments with similar results.
In general terms: Immunoblotting shows a protein as a band on a membrane.

Each structure is given as a SMILES string.

Broadly, the Kd is a measure of binding affinity in units of concentration. The term IC50 denotes the concentration that inhibits the measured activity by half.

As for `O=C1O[C@H]2[C@@H]3OC(=O)c4cc(O)c(O)c(O)c4-c4c(cc(O)c(O)c4O)C(=O)OC[C@H]2O[C@@H](OC(=O)c2cc(O)c(O)c(O)c2)[C@@H]3OC(=O)c2cc(O)c(O)c3c2[C@@H]2C1=CC(=O)[C@](O)(O3)C2(O)O` [Compound 54, geraniin], at recombinant Hsp90α, the Kd came to 415 ± 27 nM. This compound gave an IC50 in the series on Jurkat cells of 760 ± 100 nM. Moreover, the “cytotoxic effects in control PBMC” value in series [1] was “Minimal cytotoxic effects”. Besides, the Hsp70 expression increase in series [2] (1 µM geraniin) stood at 3.5±0.12 fold. Further, the “level of Akt” value in series [2] is recorded as “unaffected”. In series [2] (IC50 and lower and higher concentrations), the “level of the client proteins c-Raf, pAkt and EGFR” value is “dose-dependent decrease”.
